Patent publication US8592610B2, “Spiroheterocyclic tetronic acid derivatives” (Bayer CropScience AG, priority 2009, dated 2013)
Values belong to the molecule of their own block, whether it stands above or below them.

Assays:
[1] = system: green peach aphid (Myzus persicae); assay: Myzus test (MVZUPE spray treatment); type: in vivo; conditions: after 6 days, Chinese cabbage leaf discs
Experimental: (§1) To produce a suitable preparation of active compound, one part by weight of active compound is mixed with the stated amounts of solvents and emulsifier, and the concentrate is diluted with emulsifier-containing water to the desired concentration.
Discs of Chinese cabbage leaves (Brassica pekinensis) which are infested by all stages of the green peach aphid (Myzus persicae) are sprayed with an active compound preparation of the desired concentration.
(§2) After 6 days, the effect in percent is determined. 100% means that all aphids have been killed; 0% means that none of the aphids have been killed.

[2] = system: larvae of the mustard beetle (Phaedon cochleariae); assay: Phaedon test (PHAECO spray treatment); type: in vivo; conditions: application rate 500 g/ha, after 7 days, Chinese cabbage leaf discs
Experimental: [table] To produce a suitable preparation of active compound, one part by weight of active compound is mixed with the stated amounts of solvents and emulsifier, and the concentrate is diluted with emulsifier-containing water to the desired concentration. Discs of Chinese cabbage leaves (Brassica pekinensis) are sprayed with an active compound preparation of the desired concentration and, after drying, populated with larvae of the mustard beetle (Phaedon cochleariae).

[3] = log P determination by LC-MS in the acidic range (HCOOH); type: physicochemical; conditions: LC-MS column with aqueous formic acid/acetonitrile gradient, pH 2.7, 0.1% aqueous formic acid and acetonitrile
Experimental: The LC-MS determination in the acidic range is carried out at pH 2.7 using 0.1% aqueous formic acid and acetonitrile (contains 0.1% formic acid) as mobile phases; linear gradient from 10% acetonitrile to 95% acetonitrile.
Calibration is carried out using unbranched alkan-2-ones (with 3 to 16 carbon atoms) with known log P values (determination of the log P values by the retention times using linear interpolation between two successive alkanones).

[4] = system: caterpillars of the armyworm (Spodoptera frugiperda); assay: Spodoptera frugiperda test (SPODFR spray treatment); type: in vivo; conditions: after 6 days, maize leaf discs
Experimental: as §1
Discs of maize leaves (Zea mays) are sprayed with an active compound preparation of the desired concentration and, after drying, populated with caterpillars of the armyworm (Spodoptera frugiperda).
as §2

Compound: CON1CCC2(CC1)OC(=O)C(c1cc(-c3ccc(Cl)cc3)ccc1C)=C2O [I-a-4]
activity (aphids killed) ([1]; application rate 500 g/ha): 100% | activity (beetle larvae killed) [2]: 100%

chromatographic logP [3]: 4.28
Compound: CCOC(=O)C1(OC(=O)Cc2c(C)cc(C)cc2C)CCN(OC)CC1 [II-1]

Compound: CCON1CCC2(CC1)OC(=O)C(c1c(C)cc(C)cc1C)=C2O [I-a-7]
activity (aphids killed) ([1]; application rate 500 g/ha): 100%

Compound: CCON1CCC2(CC1)OC(=O)C(c1c(CC)cc(C)cc1CC)=C2O [I-a-11]
activity (aphids killed) ([1]; application rate 500 g/ha): 100%

chromatographic logP [3]: 1.16
Compound: CCOC(=O)C1(O)CCN(OCC)CC1 [XIV-2]

Compound: CCON1CCC2(CC1)OC(=O)C(c1cc(-c3ccc(Cl)cc3)ccc1C)=C2O [I-a-13]
activity (aphids killed) ([1]; application rate 500 g/ha): 100% | activity (beetle larvae killed) [2]: 100%

Compound: CON1CCC2(CC1)OC(=O)C(c1c(C)ccc(-c3ccc(Cl)cc3)c1C)=C2O [I-a-5]
activity (aphids killed) ([1]; application rate 100 g/ha): 100% | activity (killed) ([4]; application rate 500 g/ha): ≥ 80%

Compound: CCc1cc(C)cc(C)c1C1=C(O)C2(CCN(OC)CC2)OC1=O [I-a-3]
activity (aphids killed) ([1]; application rate 500 g/ha): 100%

Compound: CCON1CCC2(CC1)OC(=O)C(c1c(C)ccc(-c3ccc(Cl)cc3)c1C)=C2O [I-a-12]
activity (aphids killed) ([1]; application rate 500 g/ha): 100% | activity (killed) ([4]; application rate 100 g/ha): ≥ 100%

chromatographic logP [3]: 2.15
Compound: CON1CCC2(CC1)OC(=O)C(c1c(C)cc(C)cc1C)=C2O [I-a-1]

Compound: CCc1cc(-c2ccc(Cl)cc2)cc(C)c1C1=C(O)C2(CCN(OC)CC2)OC1=O [I-a-6]
activity (beetle larvae killed) [2]: 100%

Compound: CON1CCC2(CC1)OC(=O)C(c1c(C)ccc(-c3ccc(F)cc3)c1C)=C2O [I-a-9]
activity (aphids killed) ([1]; application rate 500 g/ha): 100%

Compound: CCc1cc(C)cc(CC)c1C1=C(O)C2(CCN(OC)CC2)OC1=O [I-a-10]
activity (aphids killed) ([1]; application rate 500 g/ha): 100%

chromatographic logP [3]: 0.94
Compound: CCOC(=O)C1(O)CCN(OC)CC1 [XIV-1]
